Where two headings read alike, the source gives them in different places.
Columns and labels:
[1] = Metabolism in mouse hepatic S9; settings: for % Metabolism Mouse S9: 0.5 mg of protein
Procedure: (§1) A typical incubation contained rat, mouse, dog or human liver microsomes (0.4-0.5 mg of protein), 100 mM potassium phosphate buffer (pH7.4), 50 μM test compound, an NADPH-generating system consisting of 0.5 mM NADP^+, 0.5 mM glucose-6-phosphate, 1 IU/mL glucose-6-phosphate dehydrogenase, 1 mg/mL diethylenetriaminepentaaceticacid (DETAPAC), and 3 mM MgCl2 in a final incubation volume of 0.25 mL. […] After centrifugation at 3000 rpm for 5 min, the organic fraction was collected, the solvent was removed with a stream of argon and the residue was reconstituted in 125 μL of MeOH and 125 μL H2O, mixed thoroughly, centrifuged at 13,000 rpm for 5 min and analyzed by high performance liquid chromatography. Samples were run on a Hitachi D-7000 HPLC system using a L-7100 analytical pump, L-7400 UV-Visible variable wavelength detector, and L-7600 automatic sample injector. […] Disappearance of the analyte was monitored over time. A plot of the area under the curve for the normalized analyte versus time afforded the half-life values and kapp.
(§2) Microsomes contain CYPs and FMO metabolic enzymes. S9 contains soluble enzymes (i.e., aldehyde oxidase, MAO, etc.).

Human FMO3 = Human FMO3 (Homo sapiens, UniProt P31513); settings: 15 μg enzyme/incubation; 30 mins, 37° C.; nmol metabolism/incubation
CYP3A4 = CYP3A4 (Homo sapiens, UniProt P08684); test: Metabolism with highly purified CYP3A4 (HPLC); settings: 3 pmol enzyme/incubation, 30 mins, 37° C.; for Human CYP3A4 (nmol/incub): nmol metabolism/incubation
Human FMO1 = molecular target: T1, Human FMO1 (Homo sapiens, UniProt Q01740); test: Metabolism with human FMO1 (nmol metabolism/incubation); settings: 15 μg enzyme/incubation, 30 mins, 37° C.; for Human FMO1 (nmol/incub): nmol metabolism/incubation
T1 sequence (Q01740 1-532): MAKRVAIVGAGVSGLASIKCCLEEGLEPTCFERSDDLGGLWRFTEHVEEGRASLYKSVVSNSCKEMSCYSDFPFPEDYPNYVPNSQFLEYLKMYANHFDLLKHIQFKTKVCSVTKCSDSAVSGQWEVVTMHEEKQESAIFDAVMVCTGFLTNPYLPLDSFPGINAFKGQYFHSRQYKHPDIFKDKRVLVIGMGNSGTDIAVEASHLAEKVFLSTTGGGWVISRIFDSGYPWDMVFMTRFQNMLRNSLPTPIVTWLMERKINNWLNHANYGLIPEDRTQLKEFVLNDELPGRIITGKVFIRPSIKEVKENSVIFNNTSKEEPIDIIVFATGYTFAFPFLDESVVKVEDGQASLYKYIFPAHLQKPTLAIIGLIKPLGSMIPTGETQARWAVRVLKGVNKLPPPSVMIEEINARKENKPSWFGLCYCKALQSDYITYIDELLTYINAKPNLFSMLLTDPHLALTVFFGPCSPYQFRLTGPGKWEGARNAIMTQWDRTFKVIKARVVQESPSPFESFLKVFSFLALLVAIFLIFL

[2] = molecular target: Nav1.5 sodium channel transfected into HEK293 cells (Homo sapiens, UniProt Q14524); test: Patch clamp electrophysiology, peak (INaP) and late (INaL) sodium current in transfected cells
Outline: (§3)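 Conventional whole-cell patch clamp was performed on HEK293 cells transfected with Nav1.5 and plated on 0.1% gelatin-coated dishes. Values were reported as IC50 ± STD.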

[3] = molecular target: Nav1.5 sodium channel, peak current (INaP) (Homo sapiens, UniProt Q14524, form not given); test: in vitro; settings: Peak Na+ (INaP) IC50
Outline: as §3

Male BALBc mice = settings: mice, i.p.; for tolerability: 30-100 mg/kg, 24 hr
From the text: Male BALBc mice (20-22 g) were used throughout these studies. The animals were maintained in a temperature-controlled room with 12-hr periods of light and darkness and had continuous access to water and animal food. […] Groups contained 2-4 animals.

[4] = Solubility (water; 10:30:60% DMSO:PEG400:water vehicle); assay type: physicochemical
[5] = system: normal human induced pluripotent stem cell (hiPSC) cardiomyocyte; settings: for WT-Fold Prolongation: APD; for WT-Prolong. Dose: 'No AP' wraps to 'No AP Prolong.'; for WT-Cess. Dose / WT-EC50 (μM)-Prolong.: deuterated vs non-deuterated; for WT-EC50 (μM)-Prolong.: 'No AP' wraps to 'No AP prolongation'
[6] = system: cardiomyocytes derived from hiPSCs from a LQTS3 patient; settings: for LQT-Cess. Dose: deuterated vs non-deuterated; for action potential shortening compared to unlabeled compound: deuterium-labeled analogs
[7] = molecular target: T2, hERG potassium channel (IKr) (Homo sapiens, UniProt Q12809)
[8] = molecular target: T2, hERG potassium channel (IKr); test: Automated patch clamp, hERG (IKr) expressed in CHO cells; settings: hERG (IKr) IC50, CHO cells
[9] = Metabolic stability in human liver microsomes; assay type: in vitro ADME; settings: for half-life at 50 μM: human, liver microsomes, pH 7.4, 50 μM, NADPH-generating system, 37° C., read-out: Liver Microsomes t1/2 Human
Procedure: as §1

[10] = Metabolic stability in dog liver microsomes; assay type: in vitro ADME; settings: for half-life at 50 μM: dog, liver microsomes, pH 7.4, NADPH-generating system, 37° C., read-out: Liver Microsomes t1/2 Dog
Procedure: as §1

[11] = Metabolic stability in mouse liver microsomes; assay type: in vitro ADME; settings: for half-life at 50 μM: mouse, liver microsomes, pH 7.4, NADPH-generating system, 37° C., read-out: Liver Microsomes t1/2 Mouse
Procedure: as §1

[12] = Metabolic stability in rat liver microsomes; assay type: in vitro ADME; settings: for half-life at 50 μM: rat, liver microsomes, pH 7.4, NADPH-generating system, 37° C., read-out: Liver Microsomes t1/2 Rat
Procedure: as §1

[13] = system: cardiomyocytes derived from hiPSCs from a LQTS3 patient; test: cells; settings: Homo sapiens, Cardiomyocyte, read-out: LQT-IC50 (uM)-Shortening
[14] = Metabolism in human hepatic S9; settings: for Human S-9, nmol metab./incub.: 0.4 mg protein/incubation, 30 mins, 37° C.; for % Metabolism Human S9: 0.5 mg of protein
Procedure: as §1, §2

[15] = Metabolism in rat hepatic S9; assay type: in vitro ADME; settings: 0.5 mg of protein
Procedure: as §1, §2

[16] = Metabolism in dog hepatic S9; assay type: in vitro ADME; settings: 0.5 mg of protein
Procedure: as §1, §2

[17] = ratio peak/late IC50, Example 2
[18] = 0.4 mg protein/incubation, 30 mins, 37° C.
[19] = 'No AP' wraps to 'No AP shortening'

Human FMO3, sequence (P31513 whole entry): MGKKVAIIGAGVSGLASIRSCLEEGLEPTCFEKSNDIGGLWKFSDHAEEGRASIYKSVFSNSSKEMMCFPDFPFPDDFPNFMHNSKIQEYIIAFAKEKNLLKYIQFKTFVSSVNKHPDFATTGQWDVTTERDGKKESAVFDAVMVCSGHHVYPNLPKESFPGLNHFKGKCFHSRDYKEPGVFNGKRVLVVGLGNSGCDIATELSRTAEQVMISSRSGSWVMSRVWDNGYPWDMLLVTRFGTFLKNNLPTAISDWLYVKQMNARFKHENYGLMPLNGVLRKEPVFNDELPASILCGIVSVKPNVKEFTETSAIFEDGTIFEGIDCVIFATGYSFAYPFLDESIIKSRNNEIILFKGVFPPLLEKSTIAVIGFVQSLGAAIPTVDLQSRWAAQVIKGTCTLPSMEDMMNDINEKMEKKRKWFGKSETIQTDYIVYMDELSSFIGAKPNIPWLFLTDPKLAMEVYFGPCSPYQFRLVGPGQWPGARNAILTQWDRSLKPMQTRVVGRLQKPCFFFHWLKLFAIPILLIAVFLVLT
T2 sequence (Q12809 whole entry): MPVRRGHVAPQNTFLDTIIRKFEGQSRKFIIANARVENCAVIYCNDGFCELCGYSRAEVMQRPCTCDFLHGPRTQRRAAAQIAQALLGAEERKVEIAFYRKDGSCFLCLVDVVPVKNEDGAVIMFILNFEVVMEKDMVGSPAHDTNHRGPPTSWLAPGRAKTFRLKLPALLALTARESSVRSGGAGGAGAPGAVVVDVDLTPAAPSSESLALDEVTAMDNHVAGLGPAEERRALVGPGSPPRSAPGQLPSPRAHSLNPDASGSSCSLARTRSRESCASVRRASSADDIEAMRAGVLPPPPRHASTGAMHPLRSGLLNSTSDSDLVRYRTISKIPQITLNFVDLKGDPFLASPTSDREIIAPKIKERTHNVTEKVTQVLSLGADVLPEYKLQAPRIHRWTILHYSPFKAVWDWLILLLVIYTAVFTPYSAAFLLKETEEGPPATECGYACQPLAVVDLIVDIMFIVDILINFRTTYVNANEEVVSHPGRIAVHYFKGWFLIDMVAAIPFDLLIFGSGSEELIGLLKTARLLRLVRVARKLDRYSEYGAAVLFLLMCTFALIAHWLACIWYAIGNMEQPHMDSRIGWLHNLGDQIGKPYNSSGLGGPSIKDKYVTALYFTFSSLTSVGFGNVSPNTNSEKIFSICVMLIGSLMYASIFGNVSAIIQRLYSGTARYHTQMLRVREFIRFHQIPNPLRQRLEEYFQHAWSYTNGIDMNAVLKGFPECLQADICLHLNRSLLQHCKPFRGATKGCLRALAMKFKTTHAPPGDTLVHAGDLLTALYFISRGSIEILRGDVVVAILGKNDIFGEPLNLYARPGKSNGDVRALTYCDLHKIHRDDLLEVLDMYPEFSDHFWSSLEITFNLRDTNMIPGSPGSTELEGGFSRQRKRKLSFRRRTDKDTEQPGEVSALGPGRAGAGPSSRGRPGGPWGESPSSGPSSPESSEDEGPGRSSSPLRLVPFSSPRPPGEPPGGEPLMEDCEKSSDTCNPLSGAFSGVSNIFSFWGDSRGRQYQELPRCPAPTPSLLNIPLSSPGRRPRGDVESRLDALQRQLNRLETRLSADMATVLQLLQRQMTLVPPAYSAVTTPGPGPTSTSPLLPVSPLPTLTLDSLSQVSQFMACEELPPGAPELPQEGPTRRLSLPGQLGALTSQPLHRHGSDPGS
CYP3A4, sequence (P08684 whole entry): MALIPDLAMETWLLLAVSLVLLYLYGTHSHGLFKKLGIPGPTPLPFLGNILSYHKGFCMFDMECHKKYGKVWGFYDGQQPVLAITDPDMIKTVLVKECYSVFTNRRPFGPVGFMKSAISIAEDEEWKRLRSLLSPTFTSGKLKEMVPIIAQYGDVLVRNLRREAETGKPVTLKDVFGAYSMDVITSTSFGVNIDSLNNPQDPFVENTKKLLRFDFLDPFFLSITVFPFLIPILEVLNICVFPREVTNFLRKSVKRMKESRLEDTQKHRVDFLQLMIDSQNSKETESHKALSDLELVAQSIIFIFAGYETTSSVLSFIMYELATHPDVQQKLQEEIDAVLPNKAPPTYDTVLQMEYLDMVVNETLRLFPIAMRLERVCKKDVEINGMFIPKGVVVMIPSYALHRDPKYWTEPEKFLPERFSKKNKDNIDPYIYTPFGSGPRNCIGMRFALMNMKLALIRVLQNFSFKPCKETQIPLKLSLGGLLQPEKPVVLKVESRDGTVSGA

## Cl.[2H]C(N)(COc1ccccc1C)c1ccccc1 (stereo not shown) [Compound 104c]
[1]; 0.4 mg protein/incubation, 30 mins, 37° C., nmol metabolism/incubation
  Mouse liver S-9 (nmol/incub): 13.2 nmol/incub
Human FMO3
  Human FMO3 (nmol/incub): 1.3 nmol/incub
CYP3A4
  Human CYP3A4 (nmol/incub): 1.0 nmol/incub
Human FMO1
  Human FMO1 (nmol/incub): 1.4 nmol/incub

## COCCNC(COc1cc(C)cc(C)c1)c1ccccc1.Cl (stereo not shown) [Compound 69]
[2]; ratio peak IC50/late IC50
  DNap/NaL: 45.3
[2]; [17]
  DNap/NaL: 50.5
[3]
  IC50: 38.3 µM
Male BALBc mice
  behavioral/toxic effects at 200 mg/kg: slight lethargy
  tolerability: well-tolerated
[4]
  solubility (in words): good solubility
[5]; normal hiPSC cardiomyocytes
  WT-Fold Prolongation: None
  WT-Prolongation Dose: None
[5]; human, 5 min
  Cessation of Beating: 200 µM
[6]; APD shortening, LQT3 cardiomyocytes
  LQT-IC50 (uM)-Shortening: None
[6]; LQT3 cardiomyocytes
  LQT-Fold Shortening: None
  LQT-Shortening Dose: None
[6]; human, 5 min
  LQT-Cessation Dose: 200 µM
[7]
  DNaP/Kr: 7.5
[8]
  IC50: 5.1 µM
[8]; Example 2
  IC50: 5.1 µM

## Cc1cc(C)cc(OCC(N)c2ccccc2)c1 (stereo not shown) [drawing 301]
[9]
  half-life at 50 μM: 1.73 h
[10]
  half-life at 50 μM: 3.07 h
[11]
  half-life at 50 μM: 0.983 h
[12]
  half-life at 50 μM: 0.867 h

## Cc1ccccc1OCC(N)c1ccccc1 (stereo not shown) [drawing 303]
[9]
  half-life at 50 μM: 2.35 h
[11]
  half-life at 50 μM: 3.47 h
[12]
  half-life at 50 μM: 7.92 h

## Cc1ccncc1OCC(N)c1ccccc1.Cl (stereo not shown) [Compound 88]
[2]
  IC50: 1.04 µM
[2]; [17]
  DNap/NaL: 87.4
[3]
  IC50: 90.9 µM
Male BALBc mice
  behavioral/toxic effects at 200 mg/kg: slight lethargy
  tolerability: well-tolerated
[4]
  solubility (in words): good solubility
[5]
  Cessation of Beating: None
[5]; normal hiPSC cardiomyocytes
  WT-Fold Prolongation: 1.52
[6]
  LQT-Cessation Dose: None
[6]; LQT3 cardiomyocytes
  LQT-Fold Shortening: 1.287
[7]
  DKr/NaL: 10.7
  DNaP/Kr: 7.7
[13]
  IC50: 12.8 µM
[8]; Example 2
  IC50: 11.2 µM

## COCCNC(COc1ccccc1C(F)(F)F)c1ccccc1.Cl (stereo not shown) [Compound 105]
[2]
  IC50: 1.14 µM
[2]; [17]
  DNap/NaL: 38.9
[3]
  IC50: 44.3 µM
Male BALBc mice
  tolerability: well-tolerated
[4]
  solubility (in words): good solubility
[7]
  DKr/NaL: 18.3
  DNaP/Kr: 2.11
[8]; Example 2
  IC50: 20.9 µM

## Cl.[2H]C(N)(COc1c(C)cccc1C)c1ccccc1 (stereo not shown) [Compound 136]
[14]
  Human S-9, nmol metab./incub.: 1.4 nmol metab./incub.
[1]; [18]
  Mouse S-9, nmol metab./incub.: 1.4 nmol metab./incub.
CYP3A4
  Human CYP3A4, nmol metab./incub.: 1.5 nmol metab./incub.
Human FMO1
  Human FMO1, nmol metab./incub.: 0.06 nmol metab./incub.

## Cc1cc(C)cc(OCC(N)c2ccccc2)c1 (stereo not shown) [drawing 306]
[14]
  % Metabolism Human S9: 39.2 ± 8.4%
[15]
  % Metabolism Rat S9: 45.0 ± 14.5%
[16]
  % Metabolism Dog S9: 35.8 ± 7.0%
[1]
  % Metabolism Mouse S9: 13.6 ± 5.0%

## Cc1ccccc1OCC(N)c1ccccc1 (stereo not shown) [drawing 307]
[14]
  % Metabolism Human S9: 7.0 ± 0.1%
[15]
  % Metabolism Rat S9: 97.8 ± 19.5%
[16]
  % Metabolism Dog S9: 98.0 ± 28.1%
[1]
  % Metabolism Mouse S9: 34.6%

## Cl.[2H]C(N)(COc1ccccc1C(F)(F)F)c1ccccc1 (stereo not shown) [Compound 104d]
[5]
  WT-Prolong. Dose: No AP
  WT-Cess. Dose: 22 µM
  WT-EC50 (μM)-Prolong.: No AP
[6]; [19]
  LQT-EC50 (μM)-Shortening: shortens)
  LQT-Fold Shortening: 1.395
  LQT-Shortening Dose: 22 µM
[6]
  LQT-Cess. Dose: 66 µM
Human FMO3
  Human FMO3 (nmol/incub): 0.7 nmol/incub
CYP3A4
  Human CYP3A4 (nmol/incub): 0.3 nmol/incub
Human FMO1
  Human FMO1 (nmol/incub): 0.3 nmol/incub

## NC(COc1ccccc1C(F)(F)F)c1ccccc1 (stereo not shown) [drawing 308]
[14]
  % Metabolism Human S9: 28.0 ± 7.4%
[15]
  % Metabolism Rat S9: 15.4 ± 10.5%
[16]
  % Metabolism Dog S9: 51.0 ± 19.1%
[1]
  % Metabolism Mouse S9: 55.0 ± 22.4%

## Cc1cccc(C)c1OCC(N)c1ccccc1 (racemic) [Phenyl Mexiletine]
[14]
  Human S-9, nmol metab./incub.: 1.2 nmol metab./incub.
[1]; [18]
  Mouse S-9, nmol metab./incub.: 2.5 nmol metab./incub.
CYP3A4
  Human CYP3A4, nmol metab./incub.: 2.3 nmol metab./incub.
Human FMO1
  Human FMO1, nmol metab./incub.: 0.33 nmol metab./incub.

## NC(COc1cc(C(F)(F)F)cc(C(F)(F)F)c1)c1ccccc1 (stereo not shown) [drawing 302]
[9]
  parent after 60 min, Human liver microsomes (Stable): Stable >95% parent after 60 min
[10]
  half-life at 50 μM: 1.93 h
[11]; 60 min
  parent after 60 min, Mouse liver microsomes (Stable): Stable >95% parent after 60 min
[12]; 60 min
  parent after 60 min, Rat liver microsomes (Stable): Stable >95% parent after 60 min

## Cl.[2H]C(N)(COc1cc(C(F)(F)F)cc(C(F)(F)F)c1)c1ccccc1 (stereo not shown) [Compound 104a]
[5]
  WT-Prolong. Dose: No AP
  WT-Cess. Dose: 66 µM
  WT-EC50 (μM)-Prolong.: No AP
[6]; [19]
  LQT-EC50 (μM)-Shortening: No AP
  LQT-Fold Shortening: 1.274
  LQT-Shortening Dose: 22 µM
[6]
  LQT-Cess. Dose: 133 µM
  action potential shortening compared to unlabeled compound: equal to or greater action potential shortening
Human FMO3
  Human FMO3 (nmol/incub): 0.6 nmol/incub
CYP3A4
  Human CYP3A4 (nmol/incub): 1.1 nmol/incub
Human FMO1
  Human FMO1 (nmol/incub): 0.8 nmol/incub

## NC(COc1cc(C(F)(F)F)cc(C(F)(F)F)c1)c1ccccc1 (stereo not shown) [drawing 305]
[14]
  % Metabolism Human S9: 41.1 ± 28.9%
[15]
  % Metabolism Rat S9: 2.1 ± 1.4%
[16]
  % Metabolism Dog S9: 25.6 ± 17.9%
[1]
  % Metabolism Mouse S9: 11.6 ± 3.0%

## NC(COc1ccccc1C(F)(F)F)c1ccccc1 (stereo not shown) [drawing 304]
[9]
  parent after 60 min, Human liver microsomes (Stable): Stable >95% parent after 60 min
[10]; 60 min
  parent after 60 min, Dog liver microsomes (Stable): Stable >95% parent after 60 min
[11]
  half-life at 50 μM: 3.27 h
[12]
  half-life at 50 μM: 3.3 h

## Cl.[2H]C(N)(COc1cc(C)cc(C)c1)c1ccccc1 (stereo not shown) [Compound 104b]
[5]
  WT-Prolong. Dose: No AP
  WT-Cess. Dose: 22 µM
  WT-EC50 (μM)-Prolong.: No AP
[6]; [19]
  LQT-Fold Shortening: 1.280
  LQT-Shortening Dose: 2.5 µM
[6]
  LQT-Cess. Dose: 22 µM
  action potential shortening compared to unlabeled compound: equal to or greater action potential shortening
Human FMO3
  Human FMO3 (nmol/incub): 0.05 nmol/incub
CYP3A4
  Human CYP3A4 (nmol/incub): 0.3 nmol/incub
Human FMO1
  Human FMO1 (nmol/incub): 1.0 nmol/incub

Source: patent US11492325B2, “Compounds as inhibitors of sodium channels” (Human BioMolecular Research Institute, priority 2016, dated 2022)
